Laboratory results as given in patent US20210214713A9, “METHODS FOR EXPERIMENTAL EVOLUTION OF NATURAL AND SYNTHETIC MICROBES” (priority 2017, published 2021).
Like-named read-outs stand apart in the source and are kept apart here.

Key:
[1] = tested on: haploid and diploid yeast populations (ySK116, ySK743, ySK116x743); assay type: cell-based, S. cerevisiae; settings: 30° C., OD 0.25-0.3, over the 20 h following drug addition
Method: Single colonies of fluorescently labelled haploid MATα (ySK116), fluorescently labelled haploid MATα (ySK743), and fluorescently labelled diploid control (ySK116x743) cells were grown overnight in YPD. These overnights were used to seed three eVOLVER vials at OD 0.05 (containing YPAD+50 ug/mL carbenicillin+25 ug/mL chloramphenicol). Cells were maintained at 30° C. in a density window of OD 0.25-0.3 for several generations in order to measure a baseline growth rate. At 16 h post-inoculation, cells from each haploid population were transferred by the vial-to-vial transfer device into the same fresh vial containing YPAD in order to create a new pre-drug to diploid population.
Next, cyclohexamide (CHX) was added to the haploid MATα vial, ketoconazole (KETO) was added to the MATα vial, and both drugs were added to the diploid control. Using the media selection portion of the vial-to-vial transfer device, 1 mL aliquots of media at 20× drug concentration were used to achieve a step-function transition to the final 1× drug concentration in each vial (0.2 ug/mL CHX for MATα, 6 ug/mL KETO for MATα, 0.2 ug/mL CHX+6 ug/mL KETO for the diploid control).

[2] = tested on: diploid pool samples yBW003, yBW008, yBW009; assay: Growth rate assay to evaluate antifungal resistance of diploid pools in eVOLVER; assay type: cell-based, S. cerevisiae; settings: 6 ug/mL KETO only, seeded at OD 0.1, 30° C., 24 h without dilution
Method: As an alternative metric to evaluate performance of the diploids formed during the experiment, a growth rate assay was performed in media containing each drug in isolation or combination. Three diploid pool samples were assayed: yBW003 from to, yBWOO8 from t1, and yBW009 from t2. 100 uL of each frozen stock created from post-selection cultures was thawed, added to 2 mL YPAD and then grown in culture tubes in a shaking incubator for 16 h at 30° C. These cultures were used to seed duplicate eVOLVER vials containing media with one of four drug conditions (no drug, 0.2 ug/mL CHX only, 6 ug/mL KETO only, both 0.2 ug/mL CHX+6 ug/mL KETO) at an initial density of OD 0.1. Each vial received an estimated 3.2×10^7 cells from the non-clonal population that comprised each sample pool. Cultures were maintained in eVOLVER at 30° C. for 24 h without dilution, while tracking density continuously. Growth rate was calculated for each culture over the density range OD 0.2-0.8 (FIG. 43).

| SMILES | Growth rate relative to its original (pre-drug) value ([1]; 0.2 ug/mL CHX, haploid vial (founder ySK116)) | Growth rate relative to its original (pre-drug) value ([1]; 6 ug/mL KETO, haploid MATα vial (founder ySK743)) | Effect on growth rate of diploid pools [2] |
| --- | --- | --- | --- |
| C[C@@H]1C[C@@H]([C@H](O)CC2CC(=O)NC(=O)C2)C(=O)[C@@H](C)C1 [CHX, cyclohexamide] | roughly 10% | – | – |
| CC(=O)N1CCN(c2ccc(OCC3COC(Cn4ccnc4)(c4ccc(Cl)cc4Cl)O3)cc2)CC1 (stereo not drawn) [KETO, ketoconazole] | – | roughly 10% | not observed to significantly affect the growth rate |
